Results on four compounds are retold here after the supplement of paper PMC10883282.

For this experiment, the system named is G401. Nature of the experiment: relative viability vs DMSO control (72 h) (fraction); higher = more viable cells. A digest of the protocol: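 Sarcoma cell lines went into 384-well plates at densities chosen to reach 80–90% confluence. After 24 h, each well received 2.5 µl of serially diluted compound, with source plates running from 10 mM to 0.0002 mM, and the plates were kept 72 h at 37 °C, 5% CO2, alongside 0.1% DMSO vehicle and a 5 µM positive control. Relative viability was derived from ATPLite readings as percent growth and averaged over up to triplicate wells. The data were then rescaled so that 1 stands for full and 0 for none.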

± gives the standard deviation of the averaged measurements.

The compound `C[C@]1(O)C[C@@H](c2nc(-c3ccc4ccc(-c5ccccc5)nc4c3)c3c(N)nccn32)C1` [Linsitinib] yielded a relative viability (0.00017 µM) of 1 ± 0.063; a relative viability (0.00051 µM) of 0.974 ± 0.026; a relative viability (0.00152 µM) of 1.02 ± 0.048; a relative viability (0.00457 µM) of 0.955 ± 0.013; a relative viability (0.01372 µM) of 0.992 ± 0.023; a relative viability (0.04115 µM) of 0.894 ± 0.034. The relative viability runs as follows: (0.1235 µM) 0.791 ± 0.049; (0.3704 µM) 0.668 ± 0.013; (1.111 µM) 0.627 ± 0.007; (3.333 µM) 0.562 ± 0.017; (10 µM) 0.466 ± 0.026.
As for `C=CC(=O)N1CCC([C@@H]2CCNc3c(C(N)=O)c(-c4ccc(Oc5ccccc5)cc4)nn32)CC1` [Zanubrutinib], the relative viability was 0.964 ± 0.022 (0.00017 µM); 0.96 ± 0.023 (0.00051 µM); 0.99 ± 0.023 (0.00152 µM); 0.99 ± 0.024 (0.00457 µM); 0.946 ± 0.044 (0.01372 µM); 0.957 ± 0.031 (0.04115 µM). Moreover, the relative viability reads like this: (0.1235 µM) 0.957 ± 0.026; (0.3704 µM) 0.9805 ± 0.0066; (1.111 µM) 0.932 ± 0.035; (3.333 µM) 0.872 ± 0.029; (10 µM) 0.801 ± 0.039.
Take `Cn1cc(-c2cc3c(N4CCN(c5ncc([C@@](C)(N)c6ccc(F)cc6)cn5)CC4)ncnn3c2)cn1` [Avapritinib]: the relative viability runs as follows: (0.00017 µM) 0.895 ± 0.086; (0.00051 µM) 0.91 ± 0.036; (0.00152 µM) 0.907 ± 0.046; (0.00457 µM) 0.901 ± 0.023; (0.01372 µM) 0.922 ± 0.059; (0.04115 µM) 0.926 ± 0.074. The relative viability is 0.918 ± 0.032 (0.1235 µM); 0.842 ± 0.033 (0.3704 µM); 0.701 ± 0.044 (1.111 µM); 0.627 ± 0.012 (3.333 µM); 0.506 ± 0.011 (10 µM).
Consider `CC(=O)Nc1cccc(-n2c(=O)n(C3CC3)c(=O)c3c(Nc4ccc(I)cc4F)n(C)c(=O)c(C)c32)c1` [Trametinib], for which the relative viability runs as follows: (0.00017 µM) 1.01 ± 0.054; (0.00051 µM) 1 ± 0.019; (0.00152 µM) 0.952 ± 0.018; (0.00457 µM) 0.906 ± 0.029; (0.01372 µM) 0.845 ± 0.032; (0.04115 µM) 0.765 ± 0.017. The relative viability worked out at 0.627 ± 0.011 (0.1235 µM); 0.38 ± 0.027 (0.3704 µM); 0.184 ± 0.0096 (1.111 µM); 0.144 ± 0.014 (3.333 µM); 0.12 ± 0.012 (10 µM).
